Measurements published in patent publication US9637496B2, “Substituted 7-azabicycles and their use as orexin receptor modulators” (priority 2013, dated 2017).
Where two headings read alike, the source gives them in different places.

Legend:
[1] = biological target: human orexin 1 receptor (Homo sapiens (Human), UniProt O43613); assay: Human orexin 1 receptor radioligand binding (competitive binding, CHO membranes); details: read-out: hOX1 Ki
[2] = biological target: human orexin 2 receptor (Homo sapiens (Human), UniProt O43614); assay: Human orexin 2 receptor radioligand binding ([3H]-EMPA competition, HEK293 membranes); details: read-out: hOX2 Ki
[3] = biological target: rat orexin 1 receptor (Rattus norvegicus (Rat), UniProt P56718); assay: Rat orexin 1 receptor radioligand binding (competitive binding, HEK293 membranes); details: read-out: rOX1 Ki
[4] = human orexin 2 receptor, Table 2, averages from between 2-20 runs
[5] = Table 2, further testing, averages from 2-20 runs

rat orexin 1 receptor, sequence (P56718 whole entry): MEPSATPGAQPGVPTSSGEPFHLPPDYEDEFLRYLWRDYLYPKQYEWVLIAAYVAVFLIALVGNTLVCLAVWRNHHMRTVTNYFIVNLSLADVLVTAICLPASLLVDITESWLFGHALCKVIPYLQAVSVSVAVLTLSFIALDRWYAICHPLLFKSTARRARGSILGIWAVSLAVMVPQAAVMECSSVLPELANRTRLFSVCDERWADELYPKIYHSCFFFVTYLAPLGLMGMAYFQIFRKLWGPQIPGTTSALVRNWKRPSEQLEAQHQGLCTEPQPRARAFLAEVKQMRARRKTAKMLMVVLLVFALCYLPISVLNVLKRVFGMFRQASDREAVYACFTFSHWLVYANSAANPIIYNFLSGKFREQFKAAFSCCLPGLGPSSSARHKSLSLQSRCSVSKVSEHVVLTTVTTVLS
human orexin 2 receptor, sequence (O43614 whole entry): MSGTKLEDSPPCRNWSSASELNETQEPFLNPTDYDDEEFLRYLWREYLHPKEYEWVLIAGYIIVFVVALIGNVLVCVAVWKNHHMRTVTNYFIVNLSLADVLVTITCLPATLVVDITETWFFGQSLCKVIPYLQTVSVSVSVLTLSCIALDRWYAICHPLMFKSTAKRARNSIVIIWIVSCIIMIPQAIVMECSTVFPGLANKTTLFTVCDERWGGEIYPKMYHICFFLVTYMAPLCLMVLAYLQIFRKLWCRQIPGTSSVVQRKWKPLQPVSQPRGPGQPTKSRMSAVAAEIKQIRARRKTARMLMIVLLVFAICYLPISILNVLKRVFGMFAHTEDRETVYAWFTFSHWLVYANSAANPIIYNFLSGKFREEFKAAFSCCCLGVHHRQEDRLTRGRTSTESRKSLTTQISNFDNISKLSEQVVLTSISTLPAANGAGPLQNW
human orexin 1 receptor, sequence (O43613 whole entry): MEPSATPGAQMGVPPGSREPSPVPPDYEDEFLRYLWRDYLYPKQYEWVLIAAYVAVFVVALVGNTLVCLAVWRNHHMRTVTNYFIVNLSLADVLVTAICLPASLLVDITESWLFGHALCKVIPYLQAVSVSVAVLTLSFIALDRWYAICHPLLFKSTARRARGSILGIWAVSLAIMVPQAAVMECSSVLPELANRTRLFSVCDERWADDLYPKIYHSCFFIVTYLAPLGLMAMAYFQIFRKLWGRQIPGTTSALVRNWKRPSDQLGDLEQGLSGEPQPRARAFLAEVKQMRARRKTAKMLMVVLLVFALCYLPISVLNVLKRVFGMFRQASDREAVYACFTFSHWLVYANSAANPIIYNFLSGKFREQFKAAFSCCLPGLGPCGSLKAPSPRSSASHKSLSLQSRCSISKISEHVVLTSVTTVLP

SMILES | Ki [1] [nM] | Ki [2, 4] [nM] | Ki [3] [nM] | Ki [1, 5] [nM] | Ki [2, 5] [nM] | Ki [3, 5] [nM] | Ki ([1]; human orexin 1 receptor, Table 2, averages from between 2-20 runs) [nM] | Ki ([3]; rat orexin 1 receptor, Table 2, averages from between 2-20 runs) [nM]
O=C(c1ccccc1-c1ncccn1)N1[C@@H]2CC[C@H]1[C@H](Nc1ccc(C(F)(F)F)cn1)C2 [Example 373, (2-(pyrimidin-2-yl)phenyl)((1S,2R,4R)-2-((5-(trifluoromethyl)pyridin-2-yl)amino)-7-azabicyclo[2.2.1]heptan-7-yl)methanone] | 36 | 679 | 34 | – | – | – | – | –
Cc1cnc(C(=O)N2[C@@H]3CC[C@H]2[C@H](Nc2ncc(C(F)(F)F)cc2F)C3)c(-c2ncccn2)c1 [Example 457, ((1S,2R,4R)-2-((3-fluoro-5-(trifluoromethyl)pyridin-2-yl)amino)-7-azabicyclo[2.2.1]heptan-7-yl)(5-methyl-3-(pyrimidin-2-yl)pyridin-2-yl)methanone] | – | – | – | 98 | 9100 | 55 | – | –
O=C(c1cccc(F)c1-n1nccn1)N1[C@@H]2CC[C@H]1[C@H](Nc1ncc(C(F)(F)F)cc1Cl)C2 [Example 383, ((1S,2R,4R)-2-((3-chloro-5-(trifluoromethyl)pyridin-2-yl)amino)-7-azabicyclo[2.2.1]heptan-7-yl)(3-fluoro-2-(2H-1,2,3-triazol-2-yl)phenyl)methanone] | – | 767 | – | – | – | – | 16 | 33
